Key:
[1] = test system: OXA-induced ear edema, ACD mouse model; assay: Oxazolone-induced allergic contact dermatitis model, ear edema; type: in vivo
Protocol: Prednisolone was solved in 1:1 of DMSO/saline and was administered topically (15-15 μL to the inner and outer surface of the ears). All other test compounds were solved in 96% ethanol. All solutions of all the concentrations were prepared freshly on the first day of every experiment and were stored at 4° C., then shaken properly before the treatments.
Anesthesia was induced by ketamine (Richter Gedeon, Budapest, Hungary) (100 mg/kg i.p., repeated as required) with xylazine (Lavet Ltd., Budapest, Hungary) (5 mg/kg i.m.). Animals were sensitized on two consecutive days by painting 2% oxazolone (50-50 μL, Merck KGaA) on the shaved abdomen. On the 6th day the right ears were smeared with 2% oxazolone (OXA) dissolved in 96% ethanol: 15-15 μL solution was applied on each of the inner and outer surfaces. Control ears were treated with 96% ethanol in the same way. Drug-treated groups were treated with 15-15 μL of drug solution smeared to the inner and outer side of the ears every 4 hrs of the experiment after oxazolone treatment. A schematic of the experimental protocol is provided in FIG. 24 and the experimental groups are defined below. • (a) Group 1: Ethanol-treated Controls: left ear: 96% ethanol, right ear: 2% oxazolone • (b) Group 2: 1 μM CBD • (c) Group 3: 10 μM CBD • (d) Group 4: 1 μM HU101 • (e) Group 5: 10 μMHU101
Ear thickness was measured with an engineer's micrometer, with 0.1 mm accuracy, before challenge with test agents and after the challenge at different time points. Data are expressed as % increase of ear thickness compared to the initial values.
Results are expressed as mean±SEM. Comparisons between different treatment groups were performed using two-way ANOVA followed by Sidak's post hoc test for skin thickness and one-way ANOVA followed by Bonferroni's post hoc test for MPO and vascular leakage. * p<0.05 was considered to be significant.

[2] = test system: pro-inflammatory cytokine expression (IL-1α, IL-1β, IL-6, IL-8, TNFα) in HaCaT keratinocytes; assay: Inflammatory epidermal keratinocyte models (SDS, Nickel, Carvacrol, SLIGRL, UVB, Poly p(I:C), SEB/TSLP), cytokine RT-qPCR; type: cell-based, human; details: seven keratinocyte inflammation models

| Compound | reduction in OXA-induced edema formation ([1]; positive control, topical) | efficacy relative to the efficacy of prednisolone ([1]; 1 μM topical, depending on the time-point) | Effect in ACD mouse model, significance of ear edema difference ([1]; OXA + CBD 10 μM vs. OXA + HUF101 1 μM, 24 h) | Effect in ACD mouse model, significance of ear edema difference ([1]; OXA + CBD 10 μM vs. OXA + HUF101 1 μM, 48 h) | Effect in ACD mouse model, significance of ear edema difference ([1]; OXA + CBD 10 μM vs. OXA + HUF101 1 μM, 56 h) | Effect in ACD mouse model, significance of ear edema difference ([1]; OXA + CBD 10 μM vs. OXA + HUF101 10 μM, 48 h) | Effect in ACD mouse model, significance of ear edema difference ([1]; OXA + CBD 10 μM vs. OXA + HUF101 10 μM, 56 h) | Effect in ACD mouse model, significance of ear edema difference ([1]; OXA vs. OXA + HUF101 1 μM, 24 h) | Effect in ACD mouse model, significance of ear edema difference ([1]; OXA vs. OXA + HUF101 1 μM, 48 h) | Effect in ACD mouse model, significance of ear edema difference ([1]; OXA vs. OXA + HUF101 1 μM, 56 h) | Effect in ACD mouse model, significance of ear edema difference ([1]; OXA vs. OXA + HUF101 10 μM, 24 h) | Effect in ACD mouse model, significance of ear edema difference ([1]; OXA vs. OXA + HUF101 10 μM, 48 h) | Effect in ACD mouse model, significance of ear edema difference ([1]; OXA vs. OXA + HUF101 10 μM, 56 h) | anti-inflammatory actions on OXA-induced edema ([1]; both doses (1 μM and 10 μM), topical, all time-points) | effects compared with 1 μM or 10 μM CBD ([1]; both doses, statistically significant compared to 10 μM CBD) | efficacy of 1 μM compared with 10 μM ([1]; topical) | rank order of efficacy among the F-CBDs [2] |
| --- | --- | --- | --- | --- | --- | --- | --- | --- | --- | --- | --- | --- | --- | --- | --- | --- | --- |
| C[C@]12C=CC(=O)C=C1CC[C@@H]1[C@@H]2[C@@H](O)C[C@@]2(C)[C@H]1CC[C@]2(O)C(=O)CO [Prednisolone, reference compound] | most robust reduction |  |  |  |  |  |  |  |  |  |  |  |  |  |  |  |  |
| C=C(C)[C@@H]1CCC(C)=C[C@H]1c1c(O)cc(CCCCC)c(F)c1O [HUF101] |  | 40-60% | ** (** p ≤ 0.01) | *** (*** p ≤ 0.001) | *** (*** p ≤ 0.001) | ** (** p ≤ 0.01) | *** (*** p ≤ 0.001) | *** (*** p ≤ 0.001) | *** (*** p ≤ 0.001) | *** (*** p ≤ 0.001) | *** (*** p ≤ 0.001) | *** (*** p ≤ 0.001) | * (* p ≤ 0.05) | statistically significant anti-inflammatory actions at all time-points | more robust effects | somewhat higher | HUF103>HU559a>HUF101 |

From patent US11154515B2, “Pharmaceutical compositions comprising cannabidiol and beta-caryophyllene and methods for their use” (priority 2017, dated 2021)
